Common to all, as to assay type: cell-based
In one data set the test system is HEK-293T. As to the kind of experiment: Cytotoxicity against HEK293T cells transfected with human IDO1 or mouse IDO2 assessed as apoptotic cells at 200 uM after 7 hrs or 24 hrs by DAPI staining based cytometric analysis relative to control.
Data set [1] deals with T1, Indoleamine 2,3-dioxygenase 2 (Mus musculus) (UniProt Q8R0V5).
T1 sequence (whole entry): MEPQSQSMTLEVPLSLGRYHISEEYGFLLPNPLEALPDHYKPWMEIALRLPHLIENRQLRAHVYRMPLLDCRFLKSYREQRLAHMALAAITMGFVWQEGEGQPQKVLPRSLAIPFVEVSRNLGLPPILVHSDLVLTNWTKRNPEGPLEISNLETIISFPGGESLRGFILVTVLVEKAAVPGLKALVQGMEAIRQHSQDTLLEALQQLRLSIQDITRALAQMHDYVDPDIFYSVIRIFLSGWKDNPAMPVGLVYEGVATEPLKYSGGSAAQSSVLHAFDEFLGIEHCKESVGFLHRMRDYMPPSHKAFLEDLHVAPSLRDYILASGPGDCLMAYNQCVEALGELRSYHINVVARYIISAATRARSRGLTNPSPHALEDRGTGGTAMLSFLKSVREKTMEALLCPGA
As to the kind of experiment: Inhibition of mouse IDO2 transfected in HEK293T cells assessed as kynurenine formation using L-Trp as substrate at 200 uM after 24 hrs.

The target of data set [2] is T2, Indoleamine 2,3-dioxygenase 1 (Homo sapiens, UniProt P14902). Kind of data set: Inhibition of human IDO1 transfected in HEK293T cells assessed as kynurenine formation using L-Trp as substrate at 200 uM after 7 hrs.
Target sequence in this assay (P14902 whole entry, looked up): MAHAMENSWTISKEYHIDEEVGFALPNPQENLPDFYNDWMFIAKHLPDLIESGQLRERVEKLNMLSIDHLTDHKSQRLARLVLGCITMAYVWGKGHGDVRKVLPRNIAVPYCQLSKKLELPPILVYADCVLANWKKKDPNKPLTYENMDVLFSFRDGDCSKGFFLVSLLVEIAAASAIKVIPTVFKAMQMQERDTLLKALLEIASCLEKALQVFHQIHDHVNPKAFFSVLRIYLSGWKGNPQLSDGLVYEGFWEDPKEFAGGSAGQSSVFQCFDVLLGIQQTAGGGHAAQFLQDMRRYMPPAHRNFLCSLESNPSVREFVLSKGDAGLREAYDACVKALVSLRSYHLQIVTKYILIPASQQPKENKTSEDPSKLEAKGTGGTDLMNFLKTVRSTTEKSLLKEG
The target in data set [3] is T3, Indoleamine 2,3-dioxygenase 2 (Mus musculus, UniProt Q8R0V5).
T3 sequence (Q8R0V5 whole entry): T1 sequence (whole entry)
Kind of data set: Inhibition of mouse IDO2 transfected in HEK293T cells assessed as kynurenine formation using L-Trp as substrate after 24 hrs.

A short description of data set [4]: Selectivity ratio of IC50 for human IDO1 to IC50 for mouse IDO2 transfected in HEK293T cells.
In data set [5] the target is T2, Indoleamine 2,3-dioxygenase 1. As to the kind of experiment: Inhibition of human IDO1 transfected in HEK293T cells assessed as kynurenine formation using L-Trp as substrate after 7 hrs.
Target sequence in this assay (P14902 whole entry): as the sequence (P14902 whole entry, looked up) above

Turning to `c1ccc(-c2cnn[nH]2)cc1`, the Activity in the data set with HEK-293T was found to be 5.3%. In addition, the figures for the inhibition in data set [1] and in data set [2] were 1% and 93%, respectively.

For `Oc1ccc(Cl)cc1-c1c[nH]nn1`, the Activity in the data set with HEK-293T came out at 0%. For the same molecule, the inhibition in data set [1] is 43%; in data set [2], 98%. Further, the IC50 in data set [3] worked out at 120 µM.

As to `Clc1ccc(-c2c[nH]nn2)cc1`, the inhibition in data set [1] is 27%; in data set [2], 9%.

In the case of `Clc1ccccc1-c1c[nH]nn1`, in the data set on HEK-293T, the Activity is reported as 0.2%.

Turning to `Clc1cccc(-c2c[nH]nn2)c1CCc1ccccc1`, in the data set with HEK-293T, the Activity was 70.8%. For the same molecule, the inhibition was determined as 94% in data set [1] and 76% in data set [2].

As to `Oc1ccccc1-c1c[nH]nn1`, the Activity in the data set on HEK-293T was determined as 0.2%. Moreover, the inhibition in data set [1] was 14%; in data set [2], 96%.

In the case of `Clc1cccc(-c2c[nH]nn2)c1`, in the data set on HEK-293T, the Activity was found to be 0%. Further, the values for the inhibition in data set [1] and in data set [2] were 2% and 95%, respectively.

Turning to `Clc1ccc(CCc2ccccc2)c(-c2c[nH]nn2)c1`, the Activity with HEK-293T amounted to 51.6%. Also, the figures for the inhibition in data set [1] and in data set [2] were 97% and 70%, respectively.

Turning to `OC(Cc1ccccc1-c1c[nH]nn1)c1ccccc1` (configuration not stated), in the data set with HEK-293T, the Activity came out at 0%. For the same molecule, the inhibition in data set [1] came out at 47%; in data set [2], 28%.

On to `Clc1cccc(-c2c[nH]nn2)c1/C=C/C1CCCCC1`, for which the Ratio IC50 in data set [4] is 1. Moreover, the Activity in the data set on HEK-293T is listed as 5.4%. In addition, the inhibition stood at 65% in data set [1] and 56% in data set [2]. The IC50 in data set [5] and in data set [3] was 110 µM in each case.

In the case of `c1ccc(Cc2ccccc2-c2c[nH]nn2)cc1`, the Ratio IC50 in data set [4] was found to be 1.5. The Activity in the data set with HEK-293T is recorded as 0%. In addition, the inhibition in data set [1] came out at 80%; in data set [2], 84%. In addition, the IC50 was 105 µM in data set [5] and 70 µM in data set [3].

`Clc1cccc(-c2c[nH]nn2)c1CCC1CCCC1`: in the data set on HEK-293T, the Activity is listed as 21.5%. The inhibition in data set [1] was 90%; in data set [2], 71%.

For the molecule `Clc1cccc(-c2c[nH]nn2)c1/C=C/c1ccccc1`, the Activity in the data set on HEK-293T is given as 57.9%. The inhibition came to 97% in data set [1] and 32% in data set [2].

On to `Clc1ccccc1-c1cnn[nH]1`, for which the inhibition in data set [1] was determined as 4%; in data set [2] it was 83%.

Turning to `c1ccc(-c2c[nH]nn2)c(CCC2CCCC2)c1`, the Activity with HEK-293T turned out to be 35.1%. Further, the figures for the inhibition in data set [1] and in data set [2] were 89% and 74%, respectively.

As for `c1ccc(CCc2ccccc2-c2c[nH]nn2)cc1`, in data set [4], the Ratio IC50 was found to be 2. Besides, the Activity in the data set on HEK-293T is recorded as 3.7%. In addition, the values for the inhibition in data set [1] and in data set [2] were 90% and 58%, respectively. Moreover, the IC50 in data set [5] amounted to 100 µM; in data set [3], 51 µM.

With `c1ccc(-c2c[nH]nn2)c(CCC2CCCCC2)c1`, the Activity in the data set with HEK-293T is 72.3%. Further, the inhibition was 95% in data set [1] and 77% in data set [2].

These data come from ChEMBL document CHEMBL4425176, “1,2,3-Triazoles as inhibitors of indoleamine 2,3-dioxygenase 2 (IDO2)” (Bioorg Med Chem Lett, 2016).
